Test results published in ChEMBL document CHEMBL4177628, “Discovery of a class of diheteroaromatic amines as orally bioavailable CDK1/4/6 inhibitors” (Bioorg Med Chem Lett, 2017).

What was measured:
[1] = biological target: Cyclin-dependent kinase 4 (Homo sapiens, UniProt P11802); assay: Inhibition of CDK4 (unknown origin) using U-light as substrate preincubated for 1 hr followed by EDTA addition measured after 1 hr by LANCE Ultra kinase assay
[2] = test system: COLO 205; assay: Antiproliferative activity against human COLO205 cells after 96 hrs by CCK-8 assay; format: functional, cell-based; conditions: COLO 205, 96 h
[3] = biological target: Cyclin-dependent kinase 1 (Homo sapiens, UniProt P06493); assay: Inhibition of CDK1 (unknown origin) using U-light as substrate preincubated for 1 hr followed by EDTA addition measured after 1 hr by LANCE Ultra kinase assay
[4] = biological target: Cyclin-dependent kinase 6 (Homo sapiens, UniProt Q00534); assay: Inhibition of CDK6 (unknown origin) using U-light as substrate preincubated for 1 hr followed by EDTA addition measured after 1 hr by LANCE Ultra kinase assay
[5] = test system: COLO 205; assay: Antitumor activity against human COLO205 cells xenografted in nude BALB/c mouse assessed as tumor volume at 100 mg/kg, po administered once daily for 3 weeks measured twice per week relative to control; format: functional
[6] = Cmax in ICR mouse at 1 mg/kg, iv; format: ADME, organism-based; parameters: dose 1 mg/kg, route intravenous; conditions: in vivo
[7] = AUC in ICR mouse at 1 mg/kg, iv; format: ADME, organism-based; conditions: in vivo
[8] = Clearance in ICR mouse at 1 mg/kg, iv; format: ADME, organism-based; conditions: in vivo
[9] = Volume of distribution at steady state in ICR mouse at 1 mg/kg, iv; format: ADME, organism-based; conditions: in vivo, read-out: Vdss
[10] = Half life in ICR mouse at 1 mg/kg, iv; format: ADME, organism-based; conditions: in vivo
[11] = Oral bioavailability in ICR mouse at 5 mg/kg; format: ADME, organism-based; conditions: in vivo
[12] = AUC in ICR mouse at 5 mg/kg, po; format: ADME, organism-based; conditions: in vivo
[13] = test system: COLO 205; assay: Antitumor activity against human COLO205 cells xenografted in nude BALB/c mouse assessed as tumor volume at 25 mg/kg, po administered once daily for 3 weeks measured twice per week relative to control relative to control; format: functional
[14] = test system: COLO 205; assay: Antitumor activity against human COLO205 cells xenografted in nude BALB/c mouse assessed as tumor volume administered once daily for 3 weeks measured twice per week relative to control; format: functional
[15] = test system: Mus musculus; assay: Toxicity in nude BALB/c mouse xenografted with human COLO205 cells assessed as change in body weight at 25 to 100 mg/kg, po administered once daily for 3 weeks; format: organism-based; conditions: in vivo, 504 h

Chain of Cyclin-dependent kinase 4 (P11802 whole entry): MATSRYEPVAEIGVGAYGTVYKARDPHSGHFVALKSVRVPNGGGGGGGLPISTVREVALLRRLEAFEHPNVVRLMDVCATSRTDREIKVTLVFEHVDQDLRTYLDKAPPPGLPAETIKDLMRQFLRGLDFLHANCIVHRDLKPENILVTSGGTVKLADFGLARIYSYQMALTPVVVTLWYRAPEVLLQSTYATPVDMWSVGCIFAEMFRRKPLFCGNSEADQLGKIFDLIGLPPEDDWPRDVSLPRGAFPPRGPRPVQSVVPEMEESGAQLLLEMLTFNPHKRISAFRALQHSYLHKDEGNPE
Chain of Cyclin-dependent kinase 6 (Q00534 whole entry): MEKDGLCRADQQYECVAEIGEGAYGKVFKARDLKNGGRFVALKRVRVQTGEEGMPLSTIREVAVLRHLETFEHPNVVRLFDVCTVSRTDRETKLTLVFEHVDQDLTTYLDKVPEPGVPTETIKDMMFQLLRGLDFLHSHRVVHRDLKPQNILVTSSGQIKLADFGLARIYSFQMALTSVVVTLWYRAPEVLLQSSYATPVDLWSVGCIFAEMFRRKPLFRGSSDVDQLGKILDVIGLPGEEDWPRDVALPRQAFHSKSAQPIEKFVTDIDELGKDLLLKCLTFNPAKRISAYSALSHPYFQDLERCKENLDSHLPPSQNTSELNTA
Chain of Cyclin-dependent kinase 1 (P06493 whole entry): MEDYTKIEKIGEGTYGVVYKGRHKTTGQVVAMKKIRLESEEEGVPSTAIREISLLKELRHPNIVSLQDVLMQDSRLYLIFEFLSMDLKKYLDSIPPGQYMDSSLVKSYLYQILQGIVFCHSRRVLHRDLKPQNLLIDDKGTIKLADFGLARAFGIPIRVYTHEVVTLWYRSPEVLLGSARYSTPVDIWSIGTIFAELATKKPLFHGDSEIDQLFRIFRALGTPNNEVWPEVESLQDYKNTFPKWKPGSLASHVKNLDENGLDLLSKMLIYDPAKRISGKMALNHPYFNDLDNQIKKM

IC50 [1] [nM] | IC50 [2] [nM] | IC50 [3] [nM] | IC50 [4] [nM] | Compound | further results
283 | 5600 |  |  | CCN1CCN(Cc2cnc(Nc3ncnc(-c4cc(F)c5nc(C)n(C(C)C)c5c4)c3F)cn2)CC1 | 
35.9 | 3740 | 20200 |  | CCN1CCN(Cc2cnc(Nc3cc(-c4cc(F)c5nc(C)n(C(C)C)c5c4)ncn3)nc2)CC1 | 
2.9 | 140 | 301 | 2.9 | CCN1CCN(Cc2ccc(Nc3cc(-c4cc(F)c5nc(C)n(C(C)C)c5c4)ccn3)nc2)CC1 | 
8.8 | 460 | 231 | 4 | CCN1CCC(Oc2cnc(Nc3cc(-c4cc(F)c5nc(C)n(C(C)C)c5c4)ncn3)cn2)CC1 | 
2.1 | 50 | 35.8 | 1.6 | CCN1CCN(Cc2cnc(Nc3cc(-c4cc(F)c5nc(C)n(C(C)C)c5c4)ccn3)cn2)CC1 | 
2.2 | 160 | 101 | 1.8 | Cc1nc2c(F)cc(-c3cc(Nc4cnc(CN5CCN(C6CCCC6)CC5)cn4)ncn3)cc2n1C(C)C | 
3.7 | 140 | 140 | 1.6 | COCCN1CCN(Cc2cnc(Nc3cc(-c4cc(F)c5nc(C)n(C(C)C)c5c4)ncn3)cn2)CC1 | 
2.9 | 110 | 103 | 2.2 | Cc1nc2c(F)cc(-c3cc(Nc4cnc(CN5CCN(CC6CC6)CC5)cn4)ncn3)cc2n1C(C)C | 
1.6 | 140 | 97.2 | 2.3 | Cc1nc2c(F)cc(-c3cc(Nc4cnc(CN5CCN(C(C)C)CC5)cn4)ncn3)cc2n1C(C)C | 
 | 460 |  |  | CCN1CCN(Cc2ccc(Nc3ncc(F)c(-c4cc(F)c5nc(C)n(C(C)C)c5c4)n3)nc2)CC1 [ABEMACICLIB] | T/C [5]: 3.95%
1.5 | 210 | 136 | 2.7 | CCN1CCN(Cc2cnc(Nc3cc(-c4cc(F)c5nc(C)n(C(C)C)c5c4)ncn3)cn2)CC1 | Cmax [6]: 998 ng/mL; AUC [7]: 571 ng·h/mL; clearance [8]: 20.8 to 28.8 mL/min/kg; Vd [9]: 0.57 L/kg; half-life [10]: 1.6 h; bioavailability [11]: 89.3%; AUC [12]: 2550 ng·h/mL; T/C [5]: 12.37%; T/C [13]: 54.21%; Activity [14]: Dose-dependent effect; Activity [15]: Non-Toxic
5.6 | 530 | 150 | 5.8 | Cc1nc2c(F)cc(-c3cc(Nc4cnc(CN5CCN(CC(F)(F)F)CC5)cn4)ncn3)cc2n1C(C)C | 
18.3 | 1510 | 1410 |  | CCN1CCC(C(C)c2cnc(Nc3cc(-c4cc(F)c5nc(C)n(C(C)C)c5c4)ncn3)cn2)CC1 (centres undefined) | 
5160 |  |  |  | CCN1CCN(Cc2ncc(Nc3cc(-c4cc(F)c5nc(C)n(C(C)C)c5c4)ncn3)cn2)CC1 | 
5.2 | 340 | 801 | 23.6 | CCN1CCN(Cc2ccc(Nc3cc(-c4cc(F)c5nc(C)n(C(C)C)c5c4)ccn3)nn2)CC1 | 
12.1 | 630 | 1670 |  | CCN1CCN(Cc2ccc(Nc3cc(-c4cc(F)c5nc(C)n(C(C)C)c5c4)c(F)cn3)nn2)CC1 | 
13.8 | 520 | 2430 |  | CCN1CCN(Cc2ccc(Nc3cc(-c4cc(F)c5nc(C)n(C(C)C)c5c4)ncn3)nn2)CC1 | 
2.4 | 320 | 134 | 2.9 | CCN1CCC(Cc2cnc(Nc3cc(-c4cc(F)c5nc(C)n(C(C)C)c5c4)ncn3)cn2)CC1 | 
1.6 | 40 | 44 | 1.6 | CCN1CCN(Cc2cnc(Nc3cc(-c4cc(F)c5nc(C)n(C(C)C)c5c4)c(F)cn3)cn2)CC1 | Cmax [6]: 514 ng/mL; AUC [7]: 425 ng·h/mL; clearance [8]: 37.6 mL/min/kg; Vd [9]: 6.44 L/kg
3.1 | 260 | 412 | 4.4 | CCN1CCN(Cc2ccc(Nc3cc(-c4cc(F)c5nc(C)n(C(C)C)c5c4)ncn3)nc2)CC1 | 
